Data as given in patent US10422775B2, “Methods for determining relative response factors for impurity analysis using liquid chromatography with absorbance and evaporative light scattering detection” (Waters Technologies Corporation, priority 2016, dated 2019).
Where “and” joins values, the source holds several entries; their conditions need not be identical. Equal values may be shown once.

How the values were obtained:
[1] = Example 2: forced degradation of glimepiride drug substance under basic hydrolysis conditions, UV % impurities and mass balance; type: physicochemical; details: for % Area (impurity peaks found in base hydrolysis): degradation peak in glimepiride drug substance
Protocol: (§1) The chromatographic system was an ultra-high performance liquid chromatography system, specifically, an ACQUITY UPLC H-Class system with a pump (ACQUITY Quaternary Solvent Manager (QSM)), an injector (ACQUITY Flow Through Needle (FTN) Autosampler) and a column manager (ACQUITY Column Manager). The autosampler was configured with a 50 μL extension loop. The seal wash was 90:10 water/methanol, purge solvent was methanol and the needle wash solvent was 0.1% (v/v) formic acid in 30:70 water/acetonitrile. Detection was performed with a photodiode array detector (ACQUITY UPLC PDA), an evaporative light scattering detector (ACQUITY UPLC ELSD) and a mass detector (ACQUITY QDa) (Waters, Milford, Mass.). The eluent flow path was plumbed from the column to a triple static tee (1:10 split flow) housed within a secondary pump (ACQUITY Isocratic Solvent Manager (ISM)). The tubing from the column to the tee was 22.5″ of 0.004″ ID tubing. In the first split, a portion of the flow was diverted to the PDA with 16″ of 100 μm ID fused silica tubing and then, in series, to the ELS detector with 12″ of 0.004″ ID PEEK tubing. Flow from the isocratic solvent manager was introduced into the second splitter, and the final portion of flow was diverted to the mass spectrometer via the detector probe (250 mm). The chromatography data system was Empower 3 FR3 (Waters, Milford, Mass.). The forced degradation was performed using a water bath (Isotemp) purchased from Fisher Scientific.
(§2) The separation of glimepiride and related compounds B and C was achieved on a 2.1 mm×50 mm, 1.8 μm, ACQUITY UPLC HSS T3 C18 column (Waters Corporation) under isocratic conditions. The mobile phase was 0.1% (v/v) formic acid in 60:40 water/acetonitrile at a flow rate of 0.8 mL/min. The column temperature was 30° C. with mobile phase pre-heating. Injection volume was 4 μL. The PDA settings included wavelength of 228 nm, sampling rate of 20 points per second. The ELSD was set to a gas pressure of 25 psi, the nebulizer in Cooling mode, drift tube temperature of 55° C. and the gain set to 100 with a data rate of 10 points per second. The make-up pump was used for post-column addition of solvent using the ISM at a flow rate of 0.3 mL/min with 0.1% (v/v) formic acid in methanol. The mass detector (ACQUITY QDa, Waters Corp, USA) utilized positive electrospray ionization (ESI+), with a cone voltage set to 5 V. The capillary voltage was 1.4 kV and the sampling rate was 5 points per second. The mass range collected was 100-600 Da with additional single ion recording (SIR) channels were collected simultaneously for the following m/z=114.1 Da, 374.6 Da, 432.2 Da and 513.7 Da. The SIR channels were measured with a cone voltage of 5 V.
(§3) Over a period of 7 days, the drug substance was exposed to acidic, basic and oxidative conditions with goals of achieving approximately 10% degradation as quantified by UV. The samples were tested at 2 day intervals and analyzed by UV-ELS and MS.
Under basic hydrolysis conditions, the drug substance degraded rapidly, over a period of 1 day with >10% of degradation. […] In contrast to the previously described analyses, many smaller impurity peaks were observed.
(§4) Mass balance calculations were performed using the experimentally determined RRFs for acidic, oxidative and basic degradation conditions. […] Both the % impurity and recovery were impacted similarly, however, the implications for % impurity are greater, in that impurity reporting, identification and qualification thresholds can be impacted by as little as 0.05%.

[2] = Quantitation of by-product 4-methylcyclohexylamine by MS (SIR m/z 114.1) in acidic degradation of glimepiride; type: physicochemical; details: for 4-MeCHA / 4-MeCHA (%): by-product formed from glimepiride, acidic degradation
Protocol: as §2
Additionally, standards of 4-Methylcylohexylamine for quantitation by mass spectrometry. Specifically, a solution of 4-methylcylcohexylamine was prepared at a concentration of 0.4 mg/mL in 25:75 water/methanol. Working standards were then prepared by diluting the stock with 25:75 water/methanol. Individual calibration standards were prepared in triplicate at 0.04% (w/w), 0.2%, 0.5%, 1%, 2% and 5%, of the sample concentration of 0.250 mg/mL. The labeled purity of 4-methylcylcohexylamine was 99.7%.
Mass detection was employed for confirmation of the degradation pathway and to reconcile mass balance differences. During the formation of both related compound B and related compound C, there is a loss of 4-methylcyclohexylamine (see FIG. 14).
Quantitation of 4-methylcyclohexylamine was achieved utilizing standards prepared from commercially available reagents. Working standards were prepared to cover the range from 0.04 to 10% (0.1 to 25 ug/mL). A single ion recording channel measuring the response for m/z=114.1 Da was used for quantitation. The working standard was present as a mixture of both the cis and trans geometric isomers. These isomers were partially separated chromatographically, therefore the sum of the isomers was used for the calibration curve. The calibration curve was quadratic and converted to a linear relationship using a log-log fit over the desired quantitation range with the parameters listed in the following table.
Using the calibration curve, 4-methylcylcohexylamine was quantified in the acidic and oxidative degradation reactions over the period of 5 days.

[3] = cited from earlier work
[4] = Example 2: forced degradation of glimepiride drug substance under oxidative conditions (AIBN), UV % impurities and mass balance; type: physicochemical; details: for % Impurities: UV
Protocol: as §1, §2, §3
For example, FIG. 19 includes chromatograms from analysis of a glimepiride drug substance after 5 days of oxidation by AIBN. […] The third peak is a product of the AIBN oxidation (m/z 177.1)-*- as evidenced by analysis of the control. One of the unknown peaks present in the AIBN control (m/z=177.2 Da) was attributed to the reagent. As observed with the acidic hydrolysis of glimepiride, the by-product (m/z=114.1 Da) was also observed. In addition, the oxidation degradation produced two isobaric peaks as determined by the QDa measurement resulting in the same m/z values.
Mass balance calculations were performed using the experimentally determined RRFs for acidic, oxidative and basic degradation conditions. […] Both the % impurity and recovery were impacted similarly, however, the implications for % impurity are greater, in that impurity reporting, identification and qualification thresholds can be impacted by as little as 0.05%. […]

[5] = Example 1: forced degradation (acid hydrolysis) of glimepiride with mass balance by UPLC-PDA using RRF; type: physicochemical; set-up: Amount: unit not given beside the values; details: acid hydrolysis 40° C.
Protocol: The controls and the samples that underwent acid hydrolysis were subjected to the following conditions.
Samples were analyzed using an ultra-high performance liquid chromatography system, specifically the ACUITY UPLC H-Class system from Waters Technologies Corporation. The system included photodiode array (PDA) and ELSD detectors, a quadrapole mass detector, specifically the Qda detector from Waters Technologies Corporation, and solvent and column managers. The PDA detector was used as a detector for UV-Vis absorbance. An ultra-high performance liquid chromatography column with 1.7 μm particle size and 2.1×50 mm column dimensions, specifically the ACUITY UPLC BEH C18 column from Waters Technologies Corporation, was used. The isocratic solvent manager was used with a flow rate of 0.3 mL/min and with 0.1% formic acid in methanol as a solvent. The following settings were used for the PDA and ELSD detectors.
Isocratic and gradients methods were developed for separation of impurities; however, the isocratic method was preferred as changing the solvent composition can affect the response and the size of droplets in ELSD. Mobile phase A was 0.1% (v/v) formic acid in water. Mobile phase B was 0.1% (v/v) formic acid in acetonitrile. The column temperature was 30° C. The injection volume was 2 μL. The flow rate was 0.8 mL/min. The isocratic tests included 60% mobile phase A and 40% mobile phase B. Conditions for the gradient tests are listed below. The system has a quaternary pump with four channels; however, only the A and B channels were used, which is why the C and D values are zero in the table below.
Two degradation impurities were present, which were labeled related compound B and related compound C. To ensure adequate separation and no co-elutions, peak purity was evaluated using a mass analysis window. FIG. 9 includes PDA peak purity and Mass analysis windows in the EMPOWER 3 data analysis software used to evaluate peak purity.
RRFs were calculated for the two impurities and the reciprocal of the RRF was used as a correction factor for each impurity to determine a corrected peak area for the impurity according to the following equation.
A reference sample was run by HPLC and the total corrected PDA peak area was determined for the reference sample as described below. The correction factor of the reciprocal of the RRF for an impurity was used to determine a corrected PDA peak area for each impurity in the reference sample. The total corrected PDA peak area was the sum of the corrected PDA peak area for each impurity and the PDA peak area for the API glimepiride. This total corrected PDA peak is the value used to calculate percentage recovery. Total Corrected peak area=peak areaAPI+ΣimpuritiesCorrected peak areaimpurity (8)
The degraded samples were run by HPLC and the correction factor of the reciprocal RRF for an impurity was used to obtain a corrected PDA peak area for each impurity in each degraded sample. For each degraded sample, a total corrected PDA peak area was calculated as the sum of the corrected PDA peak areas for the impurities and the PDA peak area for the API. The percentage recovery was the total corrected PDA peak area for the degraded sample divided by the total corrected peak are for the reference sample as indicated in the equation below.
Each peak area was determined based on the average of three different injections of the sample. The tables in FIG. 11 show example calculations of mass balance based on the experimental data.
The results of the molar mass balance calculations of data from the forced degradation studies using the RRF calculated in accordance with embodiments described herein are summarized in the table below and are graphically depicted in a chart in FIG. 12.

[6] = Example 2: forced degradation of glimepiride drug substance under acidic hydrolysis conditions, UV % impurities and mass balance; type: physicochemical; details: for % Impurities: UV
Protocol: as §1, §2, §3
Confirmation of the impurities was provided by the mass spectrometry.
as §4

[7] = cited from earlier work; remark: listed apart in the source

CCC1=C(C)CN(C(=O)NCCc2ccc(S(N)(=O)=O)cc2)C1=O [Related compound B, 3-Ethyl-4-methyl-2-oxo-N-(4-sulfamoylphenethyl)-2,5-dihydro-1H-pyrrole-1-carboxamide]
% Area (impurity peaks found in base hydrolysis) ([1]; 1 day, UV): 1.83%

CC1CCC(N)CC1 (centres unmarked) [4-MeCHA, 4-methylcyclohexylamine]
4-MeCHA ([2]; 1 day): 0.36 µg/mL
4-MeCHA (%) ([2]; 1 day): 0.14%
4-MeCHA ([2]; 3 days): 0.98 µg/mL
4-MeCHA (%) ([2]; 3 days): 0.39%
4-MeCHA ([2]; 5 days): 1.74 µg/mL
4-MeCHA (%) ([2]; 5 days): 0.70%

CCC1=C(C)CN(C(=O)NCCc2ccc(S(=O)(=O)NC(=O)OC)cc2)C1=O [related compound C, methyl((4-(2-(3-ethyl-4-methyl-2-oxo-2,5-dihydro-1H-pyrrole-1-carboxamido)ethyl)phenyl)sulfonyl)carbamate]
% Area (impurity peaks found in base hydrolysis) ([1]; 1 day, UV): not observed

CCC1=C(C)CN(C(=O)NCCc2ccc(S(=O)(=O)NC(=O)NC3CCC(C)CC3)cc2)C1=O (stereo not drawn) [glimepiride, 1-[[4-[2[(3-ethyl-4-methyl-2-oxo-3pyrroline-1-carboxamido)ethyl]phenyl]-sulphony]-3-trans-(4-methylcyclohexyl)urea]]
soluble in methanol [3]: 0.5 mg/mL
% Impurities with RRF ([4]; 1 day): 1.45%
% Impurities ([4]; 1 day): 1.75%
% Impurities with RRF ([4]; 3 days): 4.05%
% Impurities ([4]; 3 days): 4.83%
% Impurities with RRF ([4]; 5 days): 6.28%
% Impurities ([4]; 5 days): 7.45%
% Impurities with RRF ([4]; 7 days): 8.42%
% Impurities ([4]; 7 days): 9.95%
Absolute Mass Balance Deficit ([5]; 1 day): −0.6
Amount ([5]; 1 day, n = 3): 239.0
Absolute Mass Balance Deficit ([5]; 3 days): −4.3
Amount ([5]; 3 days, n = 3): 242.7
Absolute Mass Balance Deficit ([5]; 5 days): −0.7
Amount ([5]; 5 days, n = 3): 239.1
Absolute Mass Balance Deficit ([5]; 7 days): −5.7
Amount ([5]; 7 days, n = 3): 244.1
Absolute Mass Balance Deficit ([5]; T = 0): 2.3
Amount ([5]; T = 0, n = 3): 236.1
increase of recoveries on adding 4-methylcylcohexylamine ([2]; acidic hydrolysis conditions, over the time period): 0.2-1.1%
% Impurities with RRF ([1]; basic hydrolysis, 1 day): 11.99%
% Impurities with RRF ([1]; basic hydrolysis, 3 days): 31.59%
% Impurities ([1]; basic hydrolysis, 3 days, UV): 33.45%
% Impurities with RRF ([1]; basic hydrolysis, 5 days): 51.92%
% Impurities with RRF ([6]; 1 day): 1.95%
% Impurities ([6]; 1 day): 2.35%
% Impurities with RRF ([6]; 3 days): 5.14%
% Impurities ([6]; 3 days): 6.13%
% Impurities with RRF ([6]; 5 days): 8.15%
% Impurities ([6]; 5 days): 9.72% and 9.67%
% Impurities with RRF ([6]; 7 days): 16.69%
% Impurities ([6]; 7 days): 19.55%
pKa value [7]: 4.32
